Data from publication PMC7067850, “Identification of highly potent and selective inhibitor, TIPTP, of the p22phox-Rubicon axis as a therapeutic agent for rheumatoid arthritis” (Scientific Reports, 2020).

Columns and labels:
[1] = target: T1, CYP2D6 (Homo sapiens, UniProt P10635); assay: CYP450 inhibition assay in human liver microsomes; assay type: in vitro ADME
T1 construct: To human liver microsomes (0.25 mg/mL); from tissue; host or cells: human liver microsomes
Experimental: (§1) All of CYP inhibition, microsomal stability and plasma stability experiments were performed by New Drug Development Center, the Daegu-Gyeongbuk Medical Innovation Foundation (DGMIF), South Korea. To human liver microsomes (0.25 mg/mL), 0.1 M phosphate buffer (pH 7.4), a cocktail of five probe substrates (Phenacetin 50 μM, Diclofenac 10 μM, S-mephenytoin 100 μM, Dextromethorphan 5 μM, and Midazolam 2.5 μM), and tested compounds were added at concentrations of 0 μM (as a control) and 10 μM. After incubation at 37 °C for 5 min, NADPH generation system solution was also added and incubated at 37 °C for 15 min again. To terminate the reaction, acetonitrile including internal standard (Terfenadine) was added, and the solution was centrifuged for 5 min (14 000 rpm, 4 °C). The supernatant was then injected into the LC-MS/MS system to simultaneously analyze the metabolites of the probe substrates and evaluate the % CYP inhibition of the tested compound.

[2] = target: T2, CYP3A4 (Homo sapiens, UniProt P08684); assay: CYP450 inhibition assay in human liver microsomes; assay type: in vitro ADME
T2 construct: To human liver microsomes (0.25 mg/mL); from tissue; host or cells: human liver microsomes
Experimental: as §1

[3] = target: T3, CYP1A2 (Homo sapiens, UniProt P05177); assay: CYP450 inhibition assay in human liver microsomes; assay type: in vitro ADME
T3 construct: To human liver microsomes (0.25 mg/mL); from tissue; host or cells: human liver microsomes
T3 sequence (P05177 1-516): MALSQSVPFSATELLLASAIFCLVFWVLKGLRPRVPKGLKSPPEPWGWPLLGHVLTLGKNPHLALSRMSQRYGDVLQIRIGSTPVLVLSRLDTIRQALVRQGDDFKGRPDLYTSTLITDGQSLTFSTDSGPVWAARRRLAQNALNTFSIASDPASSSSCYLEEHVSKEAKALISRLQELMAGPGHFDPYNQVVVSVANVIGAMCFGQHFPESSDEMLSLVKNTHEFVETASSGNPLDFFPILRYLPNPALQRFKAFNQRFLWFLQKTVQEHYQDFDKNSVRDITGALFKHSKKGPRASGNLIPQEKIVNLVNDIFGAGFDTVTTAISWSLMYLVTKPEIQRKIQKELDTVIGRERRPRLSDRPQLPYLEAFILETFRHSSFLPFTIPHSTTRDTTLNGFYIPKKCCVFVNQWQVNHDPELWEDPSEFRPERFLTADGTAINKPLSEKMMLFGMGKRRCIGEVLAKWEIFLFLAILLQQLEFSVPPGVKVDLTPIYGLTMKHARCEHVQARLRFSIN
Experimental: as §1

[4] = system: collagen-induced arthritis; assay: Collagen-induced arthritis (CIA) mouse model; assay type: in vivo
Experimental: The collagen-induced arthritis mouse model was established as previously described. Briefly, male DBA/1 J mice (6 − 8-weeks-old) were obtained from Beijing Vital River Laboratory Animal Technology Co., Ltd. (Charles River Laboratories department in Beijing, China), and kept under specific pathogen-free conditions. Chick collagen type II (Chondrex, Redmond, Washington, USA) was dissolved in 0.05 M acetic acid to a concentration of 2 mg/mL and emulsified with a complete Freund’s adjuvant (2 mg/mL M. tuberculosis H37Ra, Chondrex). At the beginning of the experiments (day 0), the mice were immunized with a 0.1 mL emulsion containing 100 μg of collagen at the tail base with a glass syringe and 25-G needles and then administered a booster (on day 21) with the same preparation of collagen and incomplete Freund’s adjuvant (Chondrex).
Cell culture supernatants, mice sera and synovial fluid were analyzed for cytokine content using the BD OptEIA ELISA set (BD Pharmingen) for the detection of TNF-α, IL-6, IL-1β, and IL-18. All assays were performed as recommended by the manufacturer.
Intracellular ROS levels were measured by flow cytometry from cells cultured in serum-free medium and loaded with the redox-sensitive dye 2 µM dihydroethidium (DHE for O2^−; Calbiochem) or 10 µM 2′,7′-Dichlorofluorescin diacetate (DCFH-DA for H2O2; Calbiochem)[18],[19]. The cells were thoroughly and quickly washed with pulse spin and immediately acquired for analyses in FACSCalibur (BD Biosciences, San Jose, CA). The data were plotted using CellQuest software (BD Biosciences).
Figure 4 TIPTP protects mice from CIA mice. (a) Schematic of the CIA model treated with TIPTP (upper). FACS analysis for superoxide and hydrogen peroxide from synovial fluid containing synoviocytes from CIA (lower). (b) Representative H&E staining of the ankle joints of each group were determined at 4 wks of CIA (left). Clinical arthritis score and swelling of paws (right) from ten mice per group. Scale bars: 500 μm. Serum (c) and Synovial fluid (d) were harvested at 4 wks of CIA and analyzed for cytokines by ELISA. […]
Arthritis mice were evaluated for disease progression three times a week as follows ^1,2. Each limb was scored according to the severity of inflammation, where 0 : no evidence of redness or swelling, 1 : redness and slight swelling confined to the tarsal joints or ankle, 2 : redness and mild swelling extending from the ankle to the tarsal joints, 3 : redness and moderate swelling extending from the ankle to the metatarsal joints, and 4 : severe swelling encompassing the ankle, foot, and digits, or ankylosis of the limb. […]

T1 sequence (P10635 whole entry): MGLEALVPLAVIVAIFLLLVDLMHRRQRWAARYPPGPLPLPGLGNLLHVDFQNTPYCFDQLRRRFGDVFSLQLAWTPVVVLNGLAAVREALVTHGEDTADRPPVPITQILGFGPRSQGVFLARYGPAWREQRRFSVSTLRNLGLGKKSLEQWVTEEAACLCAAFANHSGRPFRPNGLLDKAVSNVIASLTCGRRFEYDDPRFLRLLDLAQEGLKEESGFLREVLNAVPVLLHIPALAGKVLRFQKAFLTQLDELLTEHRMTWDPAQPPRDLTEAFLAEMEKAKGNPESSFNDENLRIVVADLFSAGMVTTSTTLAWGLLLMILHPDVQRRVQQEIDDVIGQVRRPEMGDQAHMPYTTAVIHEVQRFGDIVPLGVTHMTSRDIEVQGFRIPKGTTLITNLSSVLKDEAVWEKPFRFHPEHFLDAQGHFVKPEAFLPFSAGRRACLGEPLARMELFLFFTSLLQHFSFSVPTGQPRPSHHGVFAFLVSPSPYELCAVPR
T2 sequence (P08684 whole entry): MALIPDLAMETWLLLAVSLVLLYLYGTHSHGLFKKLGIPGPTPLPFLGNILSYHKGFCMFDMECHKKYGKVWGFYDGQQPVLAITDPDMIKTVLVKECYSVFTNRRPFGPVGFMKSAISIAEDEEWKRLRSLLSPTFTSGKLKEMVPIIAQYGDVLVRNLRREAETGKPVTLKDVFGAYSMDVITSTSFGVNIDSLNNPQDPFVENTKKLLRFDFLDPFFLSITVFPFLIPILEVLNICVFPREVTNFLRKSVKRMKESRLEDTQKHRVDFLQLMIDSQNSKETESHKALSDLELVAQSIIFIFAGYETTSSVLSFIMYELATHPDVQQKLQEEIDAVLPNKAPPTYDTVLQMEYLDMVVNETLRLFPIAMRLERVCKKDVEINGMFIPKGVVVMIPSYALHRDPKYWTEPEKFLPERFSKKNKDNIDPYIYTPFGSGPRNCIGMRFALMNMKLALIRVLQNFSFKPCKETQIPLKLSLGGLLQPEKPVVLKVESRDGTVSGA

C[C@@H](Oc1cccc(-n2cc3c(n2)CCCC3)c1)C(=O)Nc1nnc(C(F)(F)F)s1 [TIPTP, (R)-2-(3-(4,5,6,7-tetrahydro-2H-indazol-2-yl)phenoxy)-N-(5-(trifluoromethyl)-1,3,4-thiadiazol-2-yl)propanamide]
CYP (% of control activity @ 10 μM) 2D6 ([1]; 10 μM): 98.2%
effect on the CYP2D6 isozyme ([1]; in words): negligible
CYP (% of control activity @ 10 μM) 3A4 [2]: 76.6%
CYP (% of control activity @ 10 μM) 1A2 [3]: 45.7%
severity of RA (clinical parameters, paw thickness, histology) vs vehicle-treated CIA mice ([4]; CIA mice (Fig. 4b, Supplemental Fig. 6a)): markedly lower
serum and synovial fluid concentrations of TNF-α, IL-6, IL-1β, and IL-18 ([4]; CIA mice, 4 wks, ELISA (Fig. 4c,d)): significantly attenuated
production of ROS by synovial tissues ([4]; CIA mice, dose-dependent (Fig. 4a)): significantly attenuated
binding of p22phox with Rubicon protein in synoviocytes ([4]; synoviocytes from CIA mice, co-IP (Fig. 4e)): markedly decreased
